Measured values taken from publication PMC10295897, “A Novel MDM2-Binding Chalcone Induces Apoptosis of Oral Squamous Cell Carcinoma” (Biomedicines, 2023).
pIC50: −log10 of the molar value.

Columns and labels:
[1] = system: Oral Tumor Cells (SCC9, SCC25, SCC4); experiment: MTT assay, average over oral tumor cells; type: cell-based, human
Description: (§1) The viability of SCC cell lines, HT-29, HCT-116, HEP2G and primary human fibroblast cells was evaluated using the MTT assay as in [26]. Briefly, the cells were grown in duplicates in 96-well plates (5 × 10^3 cells/well) until confluence. Then, the medium was removed, fresh medium was added, and the cells were returned to the incubator in the presence of different compounds. DMSO at the same concentrations was used as a 100% cell viability control. After 48 h, the cells were incubated with 5 mg/mL MTT reagent (3-(4,5-dimethyl-2-thiazolyl)-2,5-diphenyl-2-H-tetrazolium bromide) (Sigma-Aldrich Co., St. Louis, MO, USA) for 3.5 h. After that, formazan crystals were dissolved in MTT solvent solution (DMSO/methanol 1:1 v/v), and the absorbance at 560 nm was evaluated using an EPOCH microplate spectrophotometer (BioTek Instruments, Winooski, VT, USA) with the background absorbance at 670 nm subtracted. Each of the six compounds was tested at six or seven different concentrations, ranging from 0.3 µM to 200 µM in cancer cell lines (SCC-4, SCC-9 and SCC-25) and 0.3 µM to 200 µM in primary normal human gingival fibroblasts. Controls (carboplatin, nutlin 3a) were tested at six or seven different concentrations ranging from 0.05 µM to 1000 µM in cancer cells and normal cells, depending on the compound.
(§2) The data are presented as means ± SD. IC values for the MTT assays were obtained by nonlinear regression using the […] 5.0 program (Intuitive Software for Science, San Diego, CA, USA) from at least three independent experiments. A dose–response (inhibitor) vs. response curve using the least squares method was used to determine the IC50, SD, and R^2 of the data. The selectivity index was calculated as SI = IC50 of the compound in normal oral fibroblast cells/IC50 of the same compound for each cancer cell line (SCC-4, SCC-9, SCC-25, HCT-116, HT29 and HEP2G), and the mean was calculated when indicated.

[2] = system: Primary Gingival Fibroblast (HGF); experiment: MTT cell viability assay, primary normal gingival fibroblasts; type: cell-based, human; conditions: Homo sapiens, Fibroblast, 48 h
Description: (§3) Human SCC-4, SCC-9, and SCC-25 cells derived from a human oral tongue SCC (squamous cell carcinoma) were obtained from the ATCC (CRL-1624, CRL-1629, and CRL-1628, respectively) and maintained in 1:1 DMEM/F12 (Dulbecco’s modified Eagle medium and Ham’s F12 medium; Gibco (Thermo Fisher, Waltham, MA, USA)) supplemented with 10% (v/v) FBS (fetal bovine serum; Invitrogen, Thermo Fisher, Waltham, MA, USA) and 400 ng/mL hydrocortisone (Sigma-Aldrich Co., St. Louis, MO, USA). Primary normal human gingival fibroblasts were obtained from the ATCC (PCS-201-018; HGF) and maintained in DMEM supplemented with 10% (v/v) FBS and were used in a maximum of six passages. The cells were grown in a humidified environment containing 5% CO2 at 37 °C. For all biological experiments, the compounds and control nutlin 3a were solubilized in 100% DMSO (all Sigma-Aldrich) to a final concentration of 10 mM. Carboplatin stock was prepared in water (Fauldcarbo®; LibbsFarmacêutica, São Paulo, SP, Brazil) and was used as a standard anticancer compound.
as §1, §2

SCC25 cells = experiment: MTT cell viability assay, SCC25 cells; type: cell-based, human
Description: as §3, §1, §2

Hemolysis assay = type: cell-based; conditions: human erythrocytes; vs Triton X-100 = 100%; 300 µM (method) / 500 µM (Figure 2)
Description: To determine the surfactant power of substances in biological membranes, a hemolysis assay was performed using human blood approved by the Research Ethics Committee of Universidade Federal Fluminense (CAAE: 43134721.4.0000.5626). Erythrocytes were collected by centrifugation at 1500 rpm for 15 min, washed with PBS (phosphate-buffered saline) supplemented with 10 mM glucose, and counted in an automatic cell counter (Thermo Fisher, Waltham, MA, USA). Erythrocytes were then plated in 96-well plates at a concentration of 4 × 10^8 cells/well in triplicates, and 10 µL of compounds was added at a final concentration of 300 µM in PBS with glucose (final volume 100 µL). In total, 10 µL of PBS was used as a negative control and 10 µL of PBS with 0.1% Triton X-100 as a positive control. Data reading was performed with EPOCH (BioTek Instruments, Winooski, VT, USA) at an absorbance of 540 nm, and the statistical data were generated using the […] Prism 5.0 program (Intuitive Software for Science, San Diego, CA, USA).

SCC-9 cells = experiment: Caspase-3/7 flow cytometry; type: cell-based, human; conditions: SCC9, 2 × IC50, 48 h
Description: Cells of the SCC9 cell line were plated in 6-well plates (5 × 10^5 cells/well), trypsinized 48 h after treatment, labeled using the Annexin V-FITC Apoptosis Detection Kit according to the manufacturer’s protocol (#BMS500FI/300, Invitrogen), and analyzed by FACScalibur flow cytometry as in [35]. Furthermore, 5 × 10^4 SCC-9 cells were plated in a 24-well plate containing 1 mL of DMEM/F12 with 10% FBS per well. CellEvent™ Caspase-3/7 Reagent (#R37111, Invitrogen) was diluted in a culture medium according to the manufacturer’s instructions. […] The cells were analyzed by flow cytometry after 48 h of treatment.

HT29 (adenocarcinoma) = experiment: MTT cell viability assay, HT29; type: cell-based
Description: as §1, §2

Q: What does the source list for `Cc1cccc(C)c1-n1cc(/C=C/C(=O)c2ccccc2N)nn1` [1f, (E)-1-(2-Aminophenyl)-3-(1-(2,6-dimethylphenyl)-1H-1,2,3-triazol-4-yl)prop-2-en-1-one]?
A: pIC50 ([1]; Homo sapiens, mean of SCC9, SCC25, SCC4): 5.34; Average S.I. ([1]; IC50 of normal primary fibroblasts / average IC50 of tumor cells): 6.51; pIC50 [2]: 4.53; pIC50 (SCC25 cells; Homo sapiens, SCC-25, 48 h, MTT): 5.30; SCC25 S.I. (SCC25 cells; selective index = IC50 HGF / IC50 SCC25): 5.88; hemolysis at 300 µM (Hemolysis assay): < 2%; caspase 3/7 activity (SCC-9 cells): 47.5%; pIC50 (HT29 (adenocarcinoma); Homo sapiens, HT-29, 48 h, MTT): 5.41; HT29 S.I. (HT29 (adenocarcinoma); IC50 HGF / IC50 HT29): 7.55
